According to patent US6737397B1, “Control of cancer growth through the interaction of [MET5]-enkephalin and the zeta receptor” (The Penn State Research Foundation, priority 1996, dated 2004):
“And” between values parts separate entries of the source, which are not always exact repeats. Equal entries are not always repeated. Where two headings read alike, the source gives them in different places. Marks after values point to notes of the source that are not given here.

Legend:
[1] = biological target: T1, ζ-opioid receptor (Homo sapiens, UniProt Q9NZT2); assay: Effect of cations and guanyl nucleotides on [3H]-[Met5]-enkephalin binding to HT-29 nuclear homogenates; design: from tissue; host or cells: HT-29 human colon tumor xenografts grown in athymic nude mice; nuclear (P1) and other subcellular fractions; conditions: 5, 100, 200, or 500 μM
T1 sequence (Q9NZT2 1-677): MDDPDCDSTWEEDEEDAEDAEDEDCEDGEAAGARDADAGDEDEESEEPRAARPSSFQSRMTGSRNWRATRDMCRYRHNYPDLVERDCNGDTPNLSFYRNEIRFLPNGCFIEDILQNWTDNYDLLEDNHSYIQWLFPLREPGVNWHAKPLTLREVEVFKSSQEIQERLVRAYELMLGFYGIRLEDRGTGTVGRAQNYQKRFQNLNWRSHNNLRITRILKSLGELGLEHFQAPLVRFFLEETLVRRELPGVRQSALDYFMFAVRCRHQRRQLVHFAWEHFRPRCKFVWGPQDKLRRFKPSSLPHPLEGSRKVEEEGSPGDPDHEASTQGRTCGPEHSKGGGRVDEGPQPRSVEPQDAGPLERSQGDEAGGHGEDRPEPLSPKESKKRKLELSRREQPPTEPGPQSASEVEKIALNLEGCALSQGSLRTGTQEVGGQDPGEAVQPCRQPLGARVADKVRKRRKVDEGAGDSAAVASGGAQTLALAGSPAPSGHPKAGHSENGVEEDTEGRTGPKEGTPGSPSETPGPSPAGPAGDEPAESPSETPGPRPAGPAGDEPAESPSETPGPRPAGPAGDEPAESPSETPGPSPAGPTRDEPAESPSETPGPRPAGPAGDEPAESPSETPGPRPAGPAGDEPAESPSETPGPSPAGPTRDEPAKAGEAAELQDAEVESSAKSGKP
Text: Histograms represent the percent of specific binding±SE.

[2] = biological target: T2, μ-opioid receptor (Homo sapiens, UniProt P35372); assay: [3H]DAMGO binding to HT-29 nuclear (P1) and membrane (P2) homogenates; conditions: P2 fraction
T2 construct: from tissue; host or cells: HT-29 human colon tumor xenografts from nude mice; nuclear (P1) and membrane (P2) homogenates
T2 sequence (P35372 whole entry): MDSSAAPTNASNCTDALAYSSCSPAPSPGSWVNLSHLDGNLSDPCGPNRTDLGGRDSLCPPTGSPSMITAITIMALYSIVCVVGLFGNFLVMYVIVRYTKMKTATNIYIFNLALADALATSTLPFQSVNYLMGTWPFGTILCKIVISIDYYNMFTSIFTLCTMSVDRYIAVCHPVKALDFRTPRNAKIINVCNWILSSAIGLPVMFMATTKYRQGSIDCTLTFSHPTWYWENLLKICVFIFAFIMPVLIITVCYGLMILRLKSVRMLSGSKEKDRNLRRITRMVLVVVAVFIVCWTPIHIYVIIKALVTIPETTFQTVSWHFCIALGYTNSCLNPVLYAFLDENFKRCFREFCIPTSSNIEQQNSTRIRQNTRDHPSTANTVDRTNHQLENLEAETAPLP

[3] = system: HT-29 cells; assay: Growth assay (cell counts) of HT-29 human colon cancer cells in culture; type: cell-based
Description: In some examples, cultures of HT-29 cells were maintained in McCoy's 5A media without fetal calf serum.
(§1) Cells were seeded at equivalent amounts into 75 cm^2 flasks or into 9.6 cm^2 wells (6-well plates, Falcon) and were counted 24 hr later to determine plating efficiency. Drugs or sterile water were added beginning 24 hr after seeding (=0 hours) and both media and drugs were changed daily. All drugs were prepared in sterile water and dilutions represent final concentrations of the compounds. At appropriate times, cells were harvested with 0.05% trypsin/0.53 mM EDTA, centrifuged, and counted with a hemacytometer at 200×. Cell viability was determined by trypan blue staining. At least 2 aliquots/flask or well were counted and 2 flasks or wells/time point/treatment group were sampled.

[4] = system: COLO 205 cells; assay: Growth assay (cell counts) of COLO 205 human colon cancer cells; type: cell-based; conditions: 10^−6 M, 48 hr
Description: (§2) HT-29, WiDr, and COLO 205 cell lines were obtained from the American Type Culture Collection (Rockville, Md.). HT-29 cells were grown in McCoy's 5A media (modified), WiDr cells in Minimum Essential Media, and COLO 205 cells in RPMI 1640 media; all media contained 10% fetal calf serum, 2 mM […], 1.2% sodium bicarbonate and antibiotics (11 Units/ml penicillin, 10 μg/ml streptomycin, 10 μg/ml neomycin) in a humidified atmosphere of 7% CO2/93% air at 37° C. In some examples, cultures of HT-29 cells were maintained in McCoy's 5A media without fetal calf serum.
as §1
(§3) To examine the ubiquity of opioid activity with respect to colon cancer, two other colon cancer cell lines were investigated: COLO 205 and WiDr.

[5] = system: WiDr cells; assay: Growth assay (cell counts) of WiDr human colon cancer cells; type: cell-based; conditions: 10^−6 M, 48 hr
Description: as §2, §1, §3

[6] = biological target: T3, [Met5]-enkephalin receptor (Homo sapiens, UniProt Q9NZT2); assay: [3H]-[Met5]-enkephalin binding on HT-29 cells after 48 h exposure to OGF or NTX (receptor regulation)
T3 construct: endogenous in cells; host or cells: HT-29 human colon cancer cells, log phase, nuclear pellet (P1)
T3 sequence (Q9NZT2 1-677): T1 sequence (Q9NZT2 1-677)
Description: Log phase cells were incubated in 0.05% trypsin for at least 30 min with gentle agitation at 37° C. in order to reduce clumping of cells and facilitate isolation of cell nuclei. Preparations were homogenized (Polytron, setting 6, 2×10 sec) in a 1:20 (wt/vol) solution (=Tris/all) of cold 50 mM Tris HCl buffer with 0.1 mg/ml bacitracin, 1 μg/ml leupeptin, 60 nM thiorphan, 1 mM EGTA, and 0.6 mg/l PMSF, pH 7.4, at 4° C. […] Protein homogenates of P1 were diluted with Tris/all and incubated at room temperature (22° C.) for 20 min to remove endogenous opioid peptides.
The final volume of the incubation mixture was 1 ml. The incubation was terminated by rapid filtration through Whatman GF-B filters under vacuum pressure with a Brandel Cell Harvester. Filters were rinsed three times with 5 ml volumes of ice-cold 50 mM Tris buffer, dried at 60° C. for 1 hour, and counted in a 2:1 solution of Aquasol-toluene by liquid scintillation spectrometry (Beckman LS-2800). […] Duplicate tubes of homogenates were assayed for each-concentration utilized. Protein concentrations were determined by the BioRad method with gamma globulin as a standard.

[7] = system: BxPC-3 human pancreatic tumor cells; assay: BxPC-3 human pancreatic tumor xenografts in nude mice treated with OGF; type: in vivo
Description: BxPC-3 human pancreatic cancer cells, purchased from the American Type Culture Collection (Rockville, Md.), were grown in RPMI media containing 10% fetal calf serum, penicillin (10 units/ml), and streptomycin (100 μg/ml) in an atmosphere of 93% air and 7% CO2 at 37° C. Cell viability was determined by the trypan blue exclusion test. Three-to-4-week-old male athymic nude mice, obtained from Charles River Laboratories (Wilmington, Mass.), were injected subcutaneously over the right shoulder with BxPC-3 cells (log phase) in a 0.5 ml suspension of RPMI media. The day of tumor cell inoculation was considered day 0. Mice were evaluated daily and the date that the tumor became ‘visible’ was recorded. Individual tumors were measured with vernier calipers every 2 days. Measurements of the largest perpendicular dimensions were recorded and tumor volume was calculated using the formula: length×width^2×0.5[25]. The time of ‘initial’ appearance of a tumor wag considered to be the day when tumor volume was 5 mm^3 of greater. All mice were euthanized and necropsied 30 days after tumor cell inoculation. Tumor tissues for receptor binding assays, radioimmunoassays, and immunocytochemistry were rapidly frozen in liquid nitrogen and stored at −70° C. until assayed.
Drug treatment was initiated on the day of tumor cell inoculation. […] Injections were administered in the right or left flank. Animals were weighed weekly and appropriate dosage adjustments made.
The latencies for visible and initial tumor appearance, as well as the appearance of a tumor volume measuring 62.5 mm^3 (when each perpendicular measurement was 5 mm), were recorded.
Latencies for visible and initial appearance as well as tumors ≧62.5 mm were analyzed using one way analysis of variance; subsequent comparisons were made with the Newman-Keuls tests. The number of mice with initial tumor appearance on selected days was expressed as a ratio of the total number of mice in the group, and comparisons of percentages were made with chi-square tests.

[8] = biological target: ζ opioid receptor (Homo sapiens, UniProt Q9NZT2)
Description: Receptor binding assays were performed according to procedures reported elsewhere [8] with some slight modifications. […] Six assays were performed to establish binding kinetics in control tumor tissue, whereas three independent assays were conducted on tumors from mice for comparison of OGF and control groups.
Receptor binding data were analyzed with a Lundon 1 (Saturation Isotherm Binding Analysis) computer program (Lundon Software, Chagrin Falls, Ohio) and Prism Software (San Diego, Calif.). Both analyses utilized non-linear least-squares regression. Saturation curves and Scatchard plots were computed directly by these programs.
Mean binding affinities and capacities for tumor tissue from animals in the OGF and control groups were compared using analysis of variance and Newman-Keuls tests.

[9] = system: HT-29 human colon cancer cells; assay: HT-29 human colon cancer xenografts in nude mice treated with OGF and/or naloxone
[10] = biological target: T1, ζ-opioid receptor; assay: Competition for binding of [3H][Met5]enkephalin (4.0 nM) in nuclear homogenates of HT-29 human colon tumors; design: from tissue; host or cells: HT-29 human colon tumor xenografts grown in athymic nude mice; nuclear (P1) and other subcellular fractions
[11] = biological target: T1, ζ-opioid receptor; conditions: nuclear preparation of cultured HT-29 cells
[12] = biological target: T1, ζ-opioid receptor; conditions: for Bmax, fmol/mg protein: subcellular fractionation, P1 nuclear fraction
[13] = biological target: T1, ζ-opioid receptor
[14] = 5 mg/kg OGF three times daily s.c.

Nc1nc2c(ncn2C2OC(COP(=O)([O-])OP(=O)([O-])NP(=O)([O-])[O-])C(O)C2O)c(=O)[nH]1.[Li+].[Li+].[Li+].[Li+] (stereo not drawn) [GppNHp, guanylyl-imidodiphosphate (GppNHp) tetralithium salt]
effect on binding of [3H]-[Met5]-enkephalin [1]: not markedly reduced

C[C@@H](NC(=O)[C@@H](N)Cc1ccc(O)cc1)C(=O)NCC(=O)N(C)[C@@H](Cc1ccccc1)C(=O)NCCO [[3H]DAMGO]
Bmax, fmol/mg protein [2]: 20.9 ± 4.8 fmol/mg protein

[Met^5]-enkephalin
cell number greater after removal than in cultures maintained with peptide [3]: more than 80%
cell number versus controls [3]: comparable to controls
decrease in cell number from control values [3]: 35%
effect on cell growth in serum-free media [3]: inhibitory effect on cell growth
more cells after removal than in cultures continuing to receive peptide [3]: 37%
reduction in number of colon cancer cells [3]: 41% and 56%
fewer cells than control cultures [4]: 58%
fewer cells than control cultures [5]: 41%
Bmax of [3H]-[Met5]-enkephalin ([6]; HT-29 cells after 48 h of exposure to the treatment): 18.6 ± 1.1
Bmax reduced versus control cells ([6]; chronic exposure (48 h)): 50%
Number of mice with tumors 7 days after tumor cell inoculation ([7]; 5 mg/kg OGF three times daily): 0/13*
Number of mice with tumors 14 days after tumor cell inoculation ([7]; 5 mg/kg OGF three times daily): 5/13*
Number of mice with tumors 15 days after tumor cell inoculation ([7]; 5 mg/kg OGF three times daily): 8/13*
Number of mice with tumors 22 days after tumor cell inoculation ([7]; 5 mg/kg OGF three times daily): 12/13
Number of mice with tumors 30 days after tumor cell inoculation ([7]; 5 mg/kg OGF three times daily): 12/13
interval from inoculation to initial tumor appearance longer than sterile water ([7]; 5 mg/kg OGF three times daily): 43%
latency until tumor reached 62.5 mm^3 longer than control group ([7]; 5 mg/kg OGF three times daily): ~41%
visible tumors developed later than controls ([7]; 5 mg/kg OGF three times daily): more than 3 days
Latency (days) for tumors of 62.5 mm^3 in size [7, 14]: 17.2 ± 1.1 days
Latency (days) for visible tumor [7, 14]: 12.7 ± 1.4 days
Latency (days) for initial tumor appearance ([7]; 5 mg/kg OGF three times daily s.c., listed as OGF): 15.2 days and 15.2 ± 1.2 days
animals without a neoplasia ([7]; day 15): ~40%
mice with a tumor measuring ≧5 mm^3 ([7]; fifteen days after tumor cell inoculation): less than 62%
mean tumor volumes versus control group ([7]; within the 30 days of the experiment): no significant differences
binding affinity versus control group ([8]; tumors from OGF-treated mice): did not differ
binding sites reduced from control levels ([8]; tumors from OGF-treated mice): 58%
Bmax, fmol/mg protein ([8]; tumors from mice treated with 5 mg/kg OGF three times daily): 24.6 ± 5.2 fmol/mg protein
Latency for measurable tumor appearance ([9]; 0.5 mg/kg daily): 28.0 ± 0.0 days
Latency for measurable tumor appearance, days, range ([9]; 0.5 mg/kg daily): (28) days
Latency for palpable tumor ([9]; 0.5 mg/kg daily): 18.6 ± 3.2 days
Latency for visible tumor ([9]; 0.5 mg/kg daily): 22.4 ± 2.6 days
No. of mice with tumors 21 days after inoculation ([9]; 0.5 mg/kg daily): 2/14†
No. of mice with tumors 50 days after inoculation ([9]; 0.5 mg/kg daily): 7/14*
Latency for measurable tumor appearance ([9]; 5 mg/kg daily): 22.2 ± 2.3 days
Latency for measurable tumor appearance, days, range ([9]; 5 mg/kg daily): (13-22) days
Latency for palpable tumor ([9]; 5 mg/kg daily): 19.2 ± 2.2 days
Latency for visible tumor ([9]; 5 mg/kg daily): 20.2 ± 2.2 days
No. of mice with tumors 21 days after inoculation ([9]; 5 mg/kg daily): 4/14†
No. of mice with tumors 50 days after inoculation ([9]; 5 mg/kg daily): 6/14†
Latency for measurable tumor appearance ([9]; 25 mg/kg daily): 24.0 ± 4.5 days
Latency for measurable tumor appearance, days, range ([9]; 25 mg/kg daily): (12-32) days
Latency for palpable tumor ([9]; 25 mg/kg daily): 22.0 ± 4.5 days
Latency for visible tumor ([9]; 25 mg/kg daily): 23.0 ± 4.5 days
No. of mice with tumors 21 days after inoculation ([9]; 25 mg/kg daily): 2/14†
No. of mice with tumors 50 days after inoculation ([9]; 25 mg/kg daily): 6/14†
animals with a tumor ([9]; 50 days after inoculation, 0.5, 5, or 25 mg/kg OGF): 36-50%
mice that never developed xenografts of colon cancer ([9]; all OGF doses, 7-wk experimental period): 57%
mice with a measurable tumor ([9]; by day 21, 0.5, 5, or 25 mg/kg OGF): 14-28%
dose-response of tumor incidence and delay in oncogenesis ([9]; mouse, in vivo): no distinct dose-response effect
greater ability to displace [3H]-[Met5]-enkephalin than the next ranking compound [10]: 2.3 fold

[^3H]-[Met^5]-enkephalin
binding capacity (Bmax) [11]: 43 fmol/mg protein
mean binding capacity (Bmax) ([12]; P1 nuclear homogenates of HT-29 tumors, 150 min, 22° C., pH 7.4): 364.8±25.7 fmol/mg protein
Bmax, fmol/mg protein [12]: 256.0±12.6 fmol/mg protein
Bmax, fmol/mg protein ([12]; listed as [^3H][Met^5]enkephalin): 256.0 ± 12.6 fmol/mg protein
Bmax, fmol/mg protein ([13]; Patient 1, splenic flexure adenocarcinoma): 34.3 ± 9.0 fmol/mg protein
Bmax, fmol/mg protein ([13]; Patient 2, sigmoid adenocarcinoma): 32.7 ± 1.4 fmol/mg protein
mean binding capacity (Bmax) ([13]; data from both patients averaged): 33.5±4.1 fmol/mg protein
binding capacity (Bmax) ([8]; tumor tissue from control animals): 46.8±4.0 fmol/mg protein
